Tests used:
Cholinesterase = Cholinesterase (Homo sapiens, UniProt P06276); test: Inhibition of human serum BChE using butyrylthiocholine iodide as substrate by visible spectrophotometry
Acetylcholinesterase = Acetylcholinesterase (Homo sapiens, UniProt P22303); test: Inhibition of human erythrocyte AChE using acetylthiocholine iodide as substrate by visible spectrophotometry
Sequence of Acetylcholinesterase (P22303 whole entry): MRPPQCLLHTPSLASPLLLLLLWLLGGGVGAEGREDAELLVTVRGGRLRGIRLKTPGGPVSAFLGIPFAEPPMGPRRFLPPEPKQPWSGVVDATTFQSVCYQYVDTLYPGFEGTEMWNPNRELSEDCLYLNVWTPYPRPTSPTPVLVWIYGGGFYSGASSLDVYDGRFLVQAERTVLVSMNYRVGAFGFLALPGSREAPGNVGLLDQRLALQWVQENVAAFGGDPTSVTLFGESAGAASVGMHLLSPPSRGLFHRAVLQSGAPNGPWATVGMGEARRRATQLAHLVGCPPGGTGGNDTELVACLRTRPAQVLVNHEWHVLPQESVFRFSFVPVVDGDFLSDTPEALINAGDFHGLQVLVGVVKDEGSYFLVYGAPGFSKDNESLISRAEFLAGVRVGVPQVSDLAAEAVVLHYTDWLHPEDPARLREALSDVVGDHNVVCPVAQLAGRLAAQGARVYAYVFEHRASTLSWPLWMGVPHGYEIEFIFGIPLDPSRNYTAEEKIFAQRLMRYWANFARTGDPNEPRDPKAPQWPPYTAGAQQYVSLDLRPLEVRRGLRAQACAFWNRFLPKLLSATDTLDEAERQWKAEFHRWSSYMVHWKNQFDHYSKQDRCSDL

Sequence of Cholinesterase (P06276 whole entry): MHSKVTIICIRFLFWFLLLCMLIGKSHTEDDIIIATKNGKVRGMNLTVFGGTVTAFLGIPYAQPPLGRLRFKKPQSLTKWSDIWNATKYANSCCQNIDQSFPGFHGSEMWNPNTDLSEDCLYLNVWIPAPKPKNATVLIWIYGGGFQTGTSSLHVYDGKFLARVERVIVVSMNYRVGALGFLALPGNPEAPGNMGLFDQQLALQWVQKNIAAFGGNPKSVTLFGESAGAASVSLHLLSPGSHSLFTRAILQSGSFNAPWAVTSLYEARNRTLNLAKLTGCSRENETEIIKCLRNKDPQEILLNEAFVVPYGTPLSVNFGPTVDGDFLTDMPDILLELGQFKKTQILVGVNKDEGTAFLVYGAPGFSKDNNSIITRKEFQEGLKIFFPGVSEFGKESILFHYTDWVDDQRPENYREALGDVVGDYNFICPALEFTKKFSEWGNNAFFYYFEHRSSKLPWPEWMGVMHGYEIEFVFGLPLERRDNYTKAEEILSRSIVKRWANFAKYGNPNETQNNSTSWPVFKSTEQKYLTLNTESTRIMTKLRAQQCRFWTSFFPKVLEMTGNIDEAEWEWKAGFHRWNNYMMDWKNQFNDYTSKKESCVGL

SMILES | IC50 (Cholinesterase) | IC50 (Acetylcholinesterase)
C[C@@]12CC[C@@H]3[C@@](CC[C@H]4[C@@]3(C)CCC[C@@]4(C)C(=O)OCC[N+](C)(C)C)(CC1=O)C2 | 30 µM | 150 µM
C[C@@]12CC[C@@H]3[C@@](CC[C@H]4[C@@]3(C)CCC[C@@]4(C)C(=O)OCC[N+](C)(C)Cc3ccccc3)(CC1=O)C2 | 6.7 µM | 30 µM
C[C@@]12CC[C@@H]3[C@@](CC[C@H]4[C@@]3(C)CCC[C@@]4(C)C(=O)OCC[N+](C)(C)CCCCCCCCCC[N+](C)(C)CCOC(=O)[C@]3(C)CCC[C@@]4(C)[C@@H]5CC[C@@]6(C)C[C@]5(CC[C@@H]43)CC6=O)(CC1=O)C2 | 65 µM | 88 µM
C[C@@]12CC[C@@H]3[C@@](CC[C@H]4[C@@]3(C)CCC[C@@]4(C)C(=O)OCC[N+](C)(C)CCCCCCCCCCCC[N+](C)(C)CCOC(=O)[C@]3(C)CCC[C@@]4(C)[C@@H]5CC[C@@]6(C)C[C@]5(CC[C@@H]43)CC6=O)(CC1=O)C2 | 10 µM | 2.2 µM
C[C@@]12CC[C@@H]3[C@]4(CC[C@H]5[C@@]3(C)CCC[C@@]5(C)C(=O)OCC[N+](C)(C)CCCCCCCCC[N+](C)(C)CCOC(=O)[C@]3(C)CCC[C@@]5(C)[C@@H]6CC[C@@]7(C)C[C@]6(CC[C@@H]53)C[C@H]7OC(=O)CCCCCCCCC(=O)O[C@@H]1C4)C2 | 60 µM | 5 µM
CC[N+](CC)(CC)CCOCCOCCOC(=O)[C@]1(C)CCC[C@@]2(C)[C@@H]3CC[C@@]4(C)C[C@]3(CC[C@@H]21)CC4=O | > 1000 µM | 80 µM
C[C@H]1C[C@@]23CC[C@H]4[C@@](C)(CCC[C@@]4(C)C(=O)OCC[N+](C)(C)C)[C@@H]2CC[C@]1(Cl)C3 | 4.2 µM | 34 µM
C[C@H]1C[C@@]23CC[C@H]4[C@@](C)(CCC[C@@]4(C)C(=O)OCC[N+](C)(C)Cc4ccccc4)[C@@H]2CC[C@]1(Cl)C3 | 1.6 µM | 9 µM

From ChEMBL document CHEMBL3217435, “Unfolded and macrocyclic ammonium derivatives of diterpenoids steviol and isosteviol having choline moieties. Synthesis and inhibitory activities toward acetylcholine- and butyrylcholinesterases” (Medchemcomm, 2012)
